SMILES strings stand for the structures.

One assay addresses human TLR7 (Homo sapiens (Human), UniProt Q9NYK1). Nature of the assay: HEK-Blue human TLR7 cells, NF-κB SEAP reporter assay. The settings on record: stimulation for 20 hours. In kind it is cell-based. An excerpt: (§1) For TLR8 and TLR7 activity testing, HEK-Blue human TLR8 or TLR7 cells (Invivogen, San Diego, Calif., USA) are used, respectively. These cells are designed for studying the stimulation of human TLR8 or TLR7 by monitoring the activation of NF-κB. A SEAP (secreted embryonic alkaline phosphatase) reporter gene is placed under the control of the IFN-b minimal promoter fused to five NF-κB and AP-1-binding sites. Therefore the reporter expression is regulated by the NF-κB promoter upon stimulation of human TLR8 or TLR7 for 20 hours. The cell culture supernatant SEAP reporter activity was determined using Quanti Blue kit (Invivogen, San Diego, Ca, USA) at a wavelength of 640 nm, a detection medium that turns purple/blue in the presence of alkaline phosphatase. EC50 values were determined using Activity Base analysis (ID Business Solution, Limited).

For another assay, the target named is human TLR8 (Homo sapiens (Human), UniProt Q9NR97). In words: HEK-Blue human TLR8 cells, NF-κB SEAP reporter assay. In kind it is cell-based. Particulars: stimulation for 20 hours.
From the text: as §1
For orientation: A reporter such as luciferase makes a cellular process visible.

Sequence of human TLR8 (Q9NR97 27-1041): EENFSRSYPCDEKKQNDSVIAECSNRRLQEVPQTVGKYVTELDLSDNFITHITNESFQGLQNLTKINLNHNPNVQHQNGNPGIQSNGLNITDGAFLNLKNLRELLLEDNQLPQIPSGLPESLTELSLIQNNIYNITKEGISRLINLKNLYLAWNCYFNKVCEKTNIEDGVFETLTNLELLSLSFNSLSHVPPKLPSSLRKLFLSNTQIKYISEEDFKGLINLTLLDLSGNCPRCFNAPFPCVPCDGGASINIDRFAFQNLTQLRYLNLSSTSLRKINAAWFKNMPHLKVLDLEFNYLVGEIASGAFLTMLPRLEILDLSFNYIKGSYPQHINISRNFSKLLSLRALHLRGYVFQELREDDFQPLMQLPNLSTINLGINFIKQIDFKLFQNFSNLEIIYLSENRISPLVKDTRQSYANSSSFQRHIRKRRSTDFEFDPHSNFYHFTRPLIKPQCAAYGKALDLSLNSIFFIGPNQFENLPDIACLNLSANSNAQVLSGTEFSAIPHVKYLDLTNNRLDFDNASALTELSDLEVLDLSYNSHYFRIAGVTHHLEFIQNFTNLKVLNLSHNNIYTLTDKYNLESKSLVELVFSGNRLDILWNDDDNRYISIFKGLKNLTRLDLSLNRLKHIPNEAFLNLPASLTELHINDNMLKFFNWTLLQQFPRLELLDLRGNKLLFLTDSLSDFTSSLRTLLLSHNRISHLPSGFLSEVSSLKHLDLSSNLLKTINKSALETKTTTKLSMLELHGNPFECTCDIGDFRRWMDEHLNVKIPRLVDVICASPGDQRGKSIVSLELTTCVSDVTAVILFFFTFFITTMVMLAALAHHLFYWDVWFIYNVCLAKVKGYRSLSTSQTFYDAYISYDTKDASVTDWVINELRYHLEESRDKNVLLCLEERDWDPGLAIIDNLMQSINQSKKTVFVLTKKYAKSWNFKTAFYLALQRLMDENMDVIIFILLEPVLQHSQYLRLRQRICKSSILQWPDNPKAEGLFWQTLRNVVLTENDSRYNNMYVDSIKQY
Sequence of human TLR7 (Q9NYK1 27-1049): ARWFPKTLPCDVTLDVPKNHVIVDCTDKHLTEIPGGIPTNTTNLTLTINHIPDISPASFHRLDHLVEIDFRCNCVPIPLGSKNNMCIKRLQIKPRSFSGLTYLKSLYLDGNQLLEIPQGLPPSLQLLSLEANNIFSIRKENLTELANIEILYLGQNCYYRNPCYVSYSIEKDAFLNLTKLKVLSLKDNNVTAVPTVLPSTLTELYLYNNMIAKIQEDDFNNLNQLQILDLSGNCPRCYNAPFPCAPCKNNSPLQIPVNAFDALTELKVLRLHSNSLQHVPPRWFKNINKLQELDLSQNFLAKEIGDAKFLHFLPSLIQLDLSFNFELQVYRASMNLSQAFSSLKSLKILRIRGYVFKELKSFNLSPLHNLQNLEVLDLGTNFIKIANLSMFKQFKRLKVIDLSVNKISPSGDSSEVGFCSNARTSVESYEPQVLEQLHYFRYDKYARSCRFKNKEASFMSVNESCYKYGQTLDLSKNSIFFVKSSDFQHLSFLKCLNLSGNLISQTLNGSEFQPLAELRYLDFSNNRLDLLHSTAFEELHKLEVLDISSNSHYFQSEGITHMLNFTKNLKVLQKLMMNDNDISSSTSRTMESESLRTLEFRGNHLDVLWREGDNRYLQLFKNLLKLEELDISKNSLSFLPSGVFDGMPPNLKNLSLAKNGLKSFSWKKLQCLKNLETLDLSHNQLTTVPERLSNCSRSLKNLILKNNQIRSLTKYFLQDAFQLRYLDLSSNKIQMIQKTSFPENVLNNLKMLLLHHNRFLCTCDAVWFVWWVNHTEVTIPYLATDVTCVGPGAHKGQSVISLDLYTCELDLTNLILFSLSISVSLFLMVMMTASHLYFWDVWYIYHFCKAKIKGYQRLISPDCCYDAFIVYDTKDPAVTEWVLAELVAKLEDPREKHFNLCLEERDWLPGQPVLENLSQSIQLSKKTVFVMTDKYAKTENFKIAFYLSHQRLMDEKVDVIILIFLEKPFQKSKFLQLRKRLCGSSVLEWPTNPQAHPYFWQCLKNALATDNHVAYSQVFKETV

Usually EC50 stands for the concentration giving half of the maximal effect. Turning to `CCCN(CCC)C(=O)C1=Cc2ccc(C(=O)Nc3cccc(C(=O)N4CCCC4)c3)cc2N=C(N)C1` [Example 15, 2-Amino-N4,N4-dipropyl-N8-[3-(pyrrolidine-1-carbonyl)phenyl]-3H-1-benzazepine-4,8-dicarboxamide], the EC50 on human TLR7 was more than 100000 nM; on human TLR8 it was 2 nM.
Turning to `CCCN(CCC)C(=O)C1=Cc2ccc(C(=O)Nc3cncc(C(=O)N4CCCC4)c3)cc2N=C(N)C1` [Example 16, 2-Amino-N4,N4-dipropyl-N8-[5-(pyrrolidine-1-carbonyl)-3-pyridyl]-3H-1-benzazepine-4,8-dicarboxamide], the results for the EC50 at human TLR7 and at human TLR8 were more than 100000 nM and 14 nM, respectively.
`CCCN(CCC)C(=O)C1=Cc2ccc(C(=O)Nc3cccc(CCN)c3)cc2N=C(N)C1` [Example 17, 2-Amino-N8-[3-(2-aminoethyl)phenyl]-N4,N4-dipropyl-3H-1-benzazepine-4,8-dicarboxamide]: the values for the EC50 at human TLR7 and on human TLR8 were more than 100000 nM and 6 nM, respectively.
As for `CCCN(CCC)C(=O)C1=Cc2ccc(C(=O)Nc3cncc(C)c3)cc2N=C(N)C1` [Example 18, 2-Amino-N8-(5-methyl-3-pyridyl)-N4,N4-dipropyl-3H-1-benzazepine-4,8-dicarboxamide], the values for the EC50 on human TLR7 and at human TLR8 were 34000 nM and 2 nM, respectively.
As to `CCCN(CCC)C(=O)C1=Cc2ccc(C(=O)Nc3cccc(F)c3)cc2N=C(N)C1` [Example 19, 2-Amino-N8-(3-fluorophenyl)-N4,N4-dipropyl-3H-1-benzazepine-4,8-dicarboxamide], the results for the EC50 on human TLR7 and on human TLR8 were more than 100000 nM and 5 nM, respectively.
The corresponding values for `CCCN(CCC)C(=O)C1=Cc2ccc(C(=O)Nc3cncc(F)c3)cc2N=C(N)C1` [Example 20, 2-Amino-N8-(5-fluoro-3-pyridyl)-N4,N4-dipropyl-3H-1-benzazepine-4,8-dicarboxamide] are 46000 nM and 3 nM.
On to `CCCN(CCC)C(=O)C1=Cc2ccc(C(=O)Nc3cccnc3C)cc2N=C(N)C1` [Example 21, 2-Amino-N8-(2-methyl-3-pyridyl)-N4,N4-dipropyl-3H-1-benzazepine-4,8-dicarboxamide], for which the EC50 was more than 100000 nM at human TLR7 and 21 nM at human TLR8.
Turning to `CCCN(CCC)C(=O)C1=Cc2ccc(C(=O)Nc3ccc(C)nc3)cc2N=C(N)C1` [Example 22, 2-Amino-N8-(6-methyl-3-pyridyl)-N4,N4-dipropyl-3H-1-benzazepine-4,8-dicarboxamide], the EC50 at human TLR7 was more than 100000 nM; at human TLR8, 3 nM.
As to `CCCN(CCC)C(=O)C1=Cc2ccc(C(=O)Nc3cc(C)cc(C)c3)cc2N=C(N)C1` [Example 23, 2-Amino-N8-(3,5-dimethylphenyl)-N4,N4-dipropyl-3H-1-benzazepine-4,8-dicarboxamide], the EC50 at human TLR7 was more than 100000 nM; on human TLR8, 1 nM.
On the same counts, the results for `CCCN(CCC)C(=O)C1=Cc2ccc(C(=O)Nc3ccc(CN)cc3)cc2N=C(N)C1` [Example 24, 2-Amino-N8-[4-(aminomethyl)phenyl]-N4,N4-dipropyl-3H-1-benzazepine-4,8-dicarboxamide] are more than 100000 nM and 9 nM.
For `CCCN(CCC)C(=O)C1=Cc2ccc(C(=O)Nc3ccc(CCN)cc3)cc2N=C(N)C1` [Example 25, 2-Amino-N8-[4-(2-aminoethyl)phenyl]-N4,N4-dipropyl-3H-1-benzazepine-4,8-dicarboxamide], the figures for the EC50 on human TLR7 and at human TLR8 were more than 100000 nM and 18 nM, respectively.
In the case of `CCCN(CCCO)C(=O)C1=Cc2ccc(C(=O)Nc3cccc(C)c3)cc2N=C(N)C1` [Example 26, 2-Amino-N4-(3-hydroxypropyl)-N8-(m-tolyl)-N4-propyl-3H-1-benzazepine-4,8-dicarboxamide], the EC50 at human TLR7 is more than 100000 nM; on human TLR8 it was 2 nM.
Consider `CCCN(CCC)C(=O)C1=Cc2ccc(C(=O)Nc3ccccc3C)cc2N=C(N)C1` [Example 27, 2-Amino-N8-(o-tolyl)-N4,N4-dipropyl-3H-1-benzazepine-4,8-dicarboxamide], for which the EC50 at human TLR7 was found to be 28000 nM; on human TLR8, 5 nM.

These data come from patent US9475775B2, “Benzazepine dicarboxamide compounds” (Hoffmann-La Roche Inc., priority 2015, dated 2016).
